In patent US20060046968A1, “Prodrug substituted benzoxazoles as estrogenic agents” (priority 2004, published 2006):
Where “and” joins values, the source holds several entries; their conditions need not be identical. Equal entries are not always repeated.

Assays:
[1] = system: Sexually immature Sprague-Dawley rats; assay: Rat uterotrophic test procedure (Procedure 1); type: in vivo
morphine-addicted rats = assay: Rat hot flush test procedure (tail skin temperature after naloxone); type: in vivo
Description: The effect of test compounds on hot flushes can be evaluated in a standard pharmacological test procedure that measures the ability of a test compound to blunt the increase in tail skin temperature, which occurs as morphine-addicted rats are acutely withdrawn from the drug using naloxone [Merchenthaler, et al., Maturitas 30: 307-16 (1998)]. It can also be used to detect estrogen receptor antagonist activity by co-dosing test compound with the reference estrogen. The following data were obtained from representative metabolites of compounds of the invention (Table 7).

[2] = system: Sexually immature 129 SvE mice; assay: Mouse uterotrophic test procedure (Procedure 2); type: in vivo; conditions: compound 50 mg/kg s.c., days 22-25
[3] = system: Progesterone receptor mRNA; assay: Progesterone receptor mRNA regulation in the preoptic area of the rat brain; type: in vivo; conditions: 10 mg/kg
[4] = system: ovulation (number of oocytes ovulated); assay: Ovulation inhibition test procedure; type: in vivo; conditions: 50 mg/kg
Description: The test procedure is used to determine whether test compounds can inhibit or change the timing of ovulation. It can also be used to determine the number of oocytes ovulated [Lundeen, et al., J Steroid Biochem Mol Biol 78: 137-143 (2001)]. The following data were obtained from representative metabolites of compounds from the invention (Table 22).

Female Mongolian gerbils = assay: Transient global ischemia in the Mongolian gerbil: neurogranin mRNA in hippocampus; type: in vivo; conditions: gerbil hippocampus after 5 min global ischemia; s.c. daily
Protocol: Transient global ischemia in the Mongolian gerbil. The effect of test compounds on preventing or treating brain injury in response to oxygen deprivation/reperfusion were measured using the following test procedure.
Female Mongolian gerbils (60-80 g; Charles River Laboratories, Kingston, N.Y.) were housed in the Wyeth-Ayerst animal care facility Association for Assessment and Acreditation of Laboratory Animal Care (AAALAC) certified with a 12-hour light, 12-hour dark photoperiod and free access to tap water and a low-estrogen casein diet (Purina®; Richmond, Ind.). After acclimation (3-5 days), gerbils were anesthetized with isoflurane (2-3% mixture with O2), ovariectomized (Day 0). […] On Day 6, gerbils (n=4-5/group) were anesthetized with isoflurane, the common carotid arteries visualized via a mid-line neck incision and both arteries simultaneously occluded for 5 minutes with non-traumatic micro aneurysm clips. […]
The degree of neuronal protection was evaluated by in situ hybridization analysis of neurogranin mRNA. […]
Neurogranin mRNA was selected for these studies because it is highly expressed in the hippocampal neurons including CA1, but absent in glia and other cell types present in this brain region. […] The results from 6 sections (40 μm apart) per animal were averaged and statistically evaluated. […]

human ERβ = target: T1, human ERβ (Homo sapiens, UniProt Q92731); assay: ER radioligand binding competition, ERβ
T1 construct: Flag (C); made in house; host or cells: E. coli BL21 (DE3), clarified lysate

human ERα = target: T2, human ERα (Homo sapiens, UniProt P03372); assay: ER radioligand binding competition, ERα; conditions: competition with [3H]-17β-estradiol; read-out: ER-α IC50
T2 construct: These templates contained amino acids M250-V595 of human ERα; His (N); Flag (C); made in house; host or cells: E. coli BL21 (DE3), clarified lysate
T2 sequence (P03372 250-595): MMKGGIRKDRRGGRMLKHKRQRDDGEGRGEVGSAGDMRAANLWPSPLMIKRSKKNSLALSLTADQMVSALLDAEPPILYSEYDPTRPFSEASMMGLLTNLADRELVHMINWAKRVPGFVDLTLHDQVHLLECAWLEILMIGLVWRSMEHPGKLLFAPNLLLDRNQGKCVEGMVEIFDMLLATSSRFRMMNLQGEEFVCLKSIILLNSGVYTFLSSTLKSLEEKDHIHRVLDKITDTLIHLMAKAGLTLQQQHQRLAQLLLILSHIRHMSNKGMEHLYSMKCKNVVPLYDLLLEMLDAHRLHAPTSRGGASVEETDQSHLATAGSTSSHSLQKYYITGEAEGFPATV

[5] = compound 2 mg/rat + 17α-ethinyl, 17β-estradiol 0.06 μg/rat s.c. (antagonist mode)

T1 sequence (Q92731 214-530): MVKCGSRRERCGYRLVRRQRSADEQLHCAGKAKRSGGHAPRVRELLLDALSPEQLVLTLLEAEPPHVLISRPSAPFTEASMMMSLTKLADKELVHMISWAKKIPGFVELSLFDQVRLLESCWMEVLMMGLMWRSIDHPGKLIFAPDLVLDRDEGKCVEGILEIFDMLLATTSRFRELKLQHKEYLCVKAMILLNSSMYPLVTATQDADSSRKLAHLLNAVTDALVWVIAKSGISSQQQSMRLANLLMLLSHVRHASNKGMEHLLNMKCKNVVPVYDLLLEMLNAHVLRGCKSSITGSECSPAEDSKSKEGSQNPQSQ

Row | SMILES | mean uterine weight ± SEM [1, 5] [mg] | mean uterine weight ± SEM [2] [mg] | Progesterone receptor mRNA (mean ± stdev) [3] [arbitrary units] | Temperature change 15 minutes after naloxone injection (mean ± SEM) (morphine-addicted rats; 15 mg/kg) | further results
1 | C#C[C@]1(O)CC[C@H]2[C@@H]3CCc4cc(O)ccc4[C@H]3CC[C@@]21C [17α-ethinyl, 17β-estradiol, 17α-ethinyl-17β-estradiol, reference compound] | – | – | – | – | mean uterine weight ± SEM ([1]; reference estrogen alone, 0.06 μg/rat s.c., days 19-21): 104.7 ± 5.4 mg and 85.5 ± 3.1 mg; Temperature change 15 minutes after naloxone injection (mean ± SEM) (morphine-addicted rats; 0.3 mg/kg): 2.12 ± 1.14
2 | Oc1ccc(-c2nc3cc(O)ccc3o2)cc1 [Example 12, 2-(4-HYDROXYPHENYL)-1,3-BENZOXAZOL-5-OL] | 60.2 ± 4.0 | 13.7 ± 0.82 | 256.2 ± 42.3 | – | –
3 | Oc1ccc(-c2nc3cc(O)cc(Br)c3o2)cc1 [Example 20, 7-BROMO-2-(4-HYDROXYPHENYL)-1,3-BENZOXAZOL-5-OL] | 95.9 ± 5.5 | – | – | 5.28 ± 0.71 | Number of oocytes (mean ± SEM) [4]: 14.13 ± 0.79
4 | N#Cc1cc(O)cc2nc(-c3ccc(O)cc3)oc12 [Example 41, 5-HYDROXY-2-(4-HYDROXYPHENYL)-1,3-BENZOXAZOL-7-CARBONITRILE] | 76.6 ± 3.0 | – | – | 5.25 ± 0.72 | Neurogranin mRNA (mean ± stdev) (Female Mongolian gerbils): 43.0 ± 21.8 arbitrary units
5 | C=C(F)c1cc(O)cc2nc(-c3ccc(O)c(F)c3)oc12 [Example 64, 2-(3-FLUORO-4-HYDROXYPHENYL)-7-(1-FLUOROVI NYL)-1,3-BENZOXAZOL-5-OL] | – | 9.8 ± 0.7 | 431.3 ± 65.6 | – | IC50 (human ERβ): 3 nM; IC50 (human ERα): 376 nM
